This note sets out measurements from PMC5670154, “Anti-tumor and Anti-angiogenic Ergosterols from Ganoderma lucidum” (Frontiers in Chemistry, 2017).

Assay [1] has as its system human hepatocellular carcinoma cells HepG2. Description: MTT anti-proliferative assay, HepG2. Format: cell-based. The settings on record: for Experimental pIC50: HepG2. Here is the method: (§1) Human breast carcinoma cells MDA-MB-231, human hepatocellular carcinoma cells HepG2, and human lung carcinoma cells A549, were purchased from ATCC, or were gifted by Professor Burton B. Yang from University of Toronto, Canada. The anti-proliferative effect of total extract (GL), fractions (GL1–GL4), and compounds 1–14 on tumor cell lines was evaluated by MTT assay (Franchi et al., [2012]). Total extract (GL) and fractions (GL1–GL4) were evaluated for their anti-proliferative effect on three types of carcinoma cells (MDA-MB-231, HepG2, and A549). Compounds 1–14 were chosen to evaluate for their anti-proliferative effect against MDA-MB-231 and HepG2 cells. Hundred microliters of cells suspension (5 × 10^4 cells/mL) was seeded into wells of a 96-well plate. After being incubated for 4 h, different concentrations of fractions/compounds were added onto the cells and incubated. After 48 h, 150 μL of 3-[4,5-dimethylthiazol-2-yl]-2,5-diphenyl tetrazolium bromide (MTT) solution (Sigma) was added to each well, and cells were kept being incubated for 4 h. After removing the MTT/medium, DMSO (100 μL) of was added to each well and was agitated at 60 rpm for 5 min. The optical density of the assay 96-well plate was read (λ = 540 nm) on a microplate reader.
(§2) IC50-values were calculated and analyzed using SPSS with three replications, each carried out in triplicate. Data were expressed as mean ± SD and analyzed by one-way ANOVA followed by two-tailed Student's t-test. A difference was considered significant at the P < 0.05 or P < 0.01 level.
(In general: Tetrazolium dyes change colour on reduction, which living cells bring about.)

Assay [2] has as its system Human breast carcinoma cells MDA-MB-231. As to the kind of experiment: MTT anti-proliferative assay, MDA-MB-231. It counts as cell-based. The conditions noted are these: mean ± SD. The procedure: as §1, §2
Assay [3] deals with HUVECs. Description: Anti-angiogenesis activity, MTT assay on HUVECs. The settings on record: for EC50: MTT, 48 h, mean ± SD; for selective inhibition, tumor cells versus HUVECs: comparison of MDA-MB-231/HepG2 and HUVEC values. It counts as cell-based, human. The procedure: HUVECs (KeyGEN BioTECH Co., Ltd, Jiangsu, China) were cultured in ECM (endothelial cell medium) with 5% (v/v) FBS, 1% (v/v) ECGS, and 1% penicillin-streptomycin (w/v) at 37°C in a cell incubator. The MTT assay was employed to assess the anti-angiogenic effect of the isolated compounds against HUVECs as described previously with mild modification (Liang et al., [2015]; Nguyen et al., [2015]). Briefly, HUVECs were seeded into a 96-well plate and incubated. Different concentrations of compounds 1–14 were added onto the cells after 4 h, and continued to be co-incubated for 48 h. Next, the cells were co-incubated with MTT (Sigma, St. Louis, MO, USA) to a final concentration of 0.05% for another 4 h. Then, replacing the MTT solution with […] DMSO, and kept the plates being shaken for 3 min. The optical density of each well was measured on a microplate reader at λ = 570 nm.
as §2

Assay [4] relates to mouse embryonic fibroblasts (NIH/3T3). Description: Cytotoxicity on normal cells NIH/3T3. Format: cell-based. The procedure: Anti-proliferative activity evaluation against two types of human cancer cells (MDA-MB-231 and HepG2), HUVECs and mouse embryonic fibroblasts (NIH/3T3, used as normal cells) were then carried out.
Where [5] appears, read: Homo sapiens, HepG2, 48 h, MTT, 48 h, mean ± SD, read-out: IC50 HepG2.
Setting [6] is: Homo sapiens, HepG2, HepG2, converted from observed IC50s (μM), read-out: Experimental pIC50 (converted).
Where [7] appears, read: Mus musculus, NIH3T3, mean ± SD.
Where [8] appears, read: MTT, 48 h, mean ± SD, read-out: IC50 HepG2.
Setting [9] is: converted from observed IC50s (μM).

Where two headings read alike, the source gives them in different places.

What is called EC50 is the concentration needed to bring the measured effect to its halfway point.

Take `CO[C@@H]1C=C2[C@@H]3CC[C@H]([C@H](C)/C=C/[C@H](C)C(C)C)[C@@]3(C)CC[C@@H]2[C@@]2(C)CC[C@H](O)[C@H]3O[C@@]312` [Compound 1, (22E)-4α, 5α-epoxy-6β-methoxyergosta-7, 22-diene-3β-ol]: the IC50 in assay [1] (setting [5]) was 138 ± 8.3 µM; in assay [1] (setting [6]), 138 µM; in assay [2] (Homo sapiens, MDA-MB-231, 48 h), 176 ± 5.1 µM. The EC50 in assay [3] (Homo sapiens, HUVEC) was determined as 144 ± 6.1 µM; in assay [4] (setting [7]), 422 ± 9.3 µM.

As to `CC(C)[C@@H](C)/C=C/[C@@H](C)[C@H]1CC[C@H]2C3=C[C@@H](O)[C@@]4(O)C[C@@H](O)CC[C@]4(C)C3=CC[C@]12C` [Compound 2, (3β, 5α, 6β, 22E)-ergosta-7, 9 (11), 22-triene-3,5,6-triol], the IC50 in assay [1] (setting [5]) was under 100 µM; in assay [1] (setting [6]) it was 62.5 µM; in assay [1] (setting [8]) it was 62.5 ± 1.3 µM; in assay [2] (48 h), 56.3 ± 1.5 µM; in assay [2] (Homo sapiens, MDA-MB-231, 48 h), under 100 µM. Further, the concentration giving a half-maximal response (EC50) in assay [3] (Homo sapiens, HUVEC) stood at 142 ± 3.6 µM; in assay [4] (setting [7]) it was 303 ± 11.9 µM. Besides, the “selective inhibition, tumor cells versus HUVECs” value in assay [3] is recorded as “significant selective inhibition against cancer cells”.

For the compound `CC(C)[C@@H](C)/C=C/[C@@H](C)[C@H]1CC[C@H]2C3=C[C@@H](O)[C@@]4(O)C[C@@H](O)CC[C@]4(C)[C@H]3CC[C@]12C` [Compound 4, (3β, 5α, 6β, 22E)-ergosta-7, 22-diene-3,5,6-triol], the IC50 is 175 ± 15.9 µM in assay [1] (setting [5]); 175 µM in assay [1] (setting [6]); 149 ± 8.7 µM in assay [2] (Homo sapiens, MDA-MB-231, 48 h). For the same compound, the half-maximal effective concentration (EC50) is 345 ± 13.7 µM in assay [3] (Homo sapiens, HUVEC) and over 500 µM in assay [4] (setting [7]).

Regarding `CC(C)[C@@H](C)/C=C/[C@@H](C)[C@H]1CC[C@H]2C3=C[C@H](O)[C@@]4(O)C[C@@H](O)CC[C@]4(C)[C@H]3CC[C@]12C` [Compound 5, (3β, 5α, 6α, 22E)-ergosta-7, 22-diene-3,5,6-triol], the IC50 in assay [1] (setting [5]) was 197 ± 20.1 µM; in assay [1] (setting [6]), 197 µM; in assay [2] (Homo sapiens, MDA-MB-231, 48 h) it was 114 ± 9.9 µM. Further, the EC50 in assay [3] (Homo sapiens, HUVEC) is 206 ± 12.2 µM; in assay [4] (setting [7]), over 500 µM.

Consider `CC(C)[C@@H](C)/C=C/[C@@H](C)[C@H]1CC[C@H]2C3=C[C@H](O)[C@@]4(O)C[C@@H](O)CC[C@]4(C)[C@@]3(O)CC[C@]12C` [Compound 6, (3β, 5α, 6α, 9α, 22E)-ergosta-7, 22-diene-3,5,6,9-tetrol], for which the IC50 is 185 ± 9.5 µM in assay [1] (setting [5]); 185 µM in assay [1] (setting [6]); 224 ± 10 µM in assay [2] (Homo sapiens, MDA-MB-231, 48 h). The EC50 is 384 ± 10.9 µM in assay [3] (Homo sapiens, HUVEC) and over 500 µM in assay [4] (setting [7]).

With `CC(C)[C@@H](C)/C=C/[C@@H](C)[C@H]1CC[C@H]2C3=C(CC[C@]12C)[C@@]1(C)CC[C@H](O)C[C@@]12O[C@H]2[C@H]3O` [Compound 9, (3β, 5α, 6α, 7α, 22E)-5,6-epoxy-ergosta-8, 22-diene-3,7-diol], in assay [1] (HepG2 IC50), the “increase of activity compared with compound 2” value was “approximately 3 folds”. Moreover, the IC50 in assay [1] (setting [5]) was 22.1 ± 0.9 µM; in assay [1] (setting [6]), 22.1 µM; in assay [2] (Homo sapiens, MDA-MB-231, 48 h) it was 20.3 ± 2.2 µM. Moreover, the 50% effective concentration (EC50) was determined as 27.9 ± 1.7 µM in assay [3] (Homo sapiens, HUVEC) and 183 ± 10.3 µM in assay [4] (setting [7]).

Take `CC(C)[C@@H](C)/C=C/[C@@H](C)[C@H]1CCC2=C3[C@H](O)[C@@H]4O[C@@]45C[C@@H](O)CC[C@]5(C)[C@H]3CC[C@@]21C` [Compound 10, (3β, 5α, 6α, 7α, 22E)-5,6-epoxy-ergosta-8 (14), 22-diene-3,7-diol]: the IC50 in assay [1] (setting [5]) was 50.6 ± 5.3 µM; in assay [1] (setting [6]), 50.6 µM; in assay [2] (Homo sapiens, MDA-MB-231, 48 h), 46.7 ± 5.4 µM. The EC50 in assay [3] (Homo sapiens, HUVEC) came out at 48.7 ± 2.9 µM; in assay [4] (setting [7]), 194 ± 9.6 µM.

As to `CC(C)[C@@H](C)/C=C/[C@@H](C)[C@H]1CC[C@@H]2[C@]1(C)CC[C@H]1[C@]23C=C[C@]2(C[C@@H](O)CC[C@]12C)OO3` [Compound 11, (3β, 5α, 8α, 22E)-5,8-epidioxy-ergosta-6, 22-dien-3-ol], the IC50 is 34.8 ± 2.6 µM in assay [1] (setting [5]); 34.8 µM in assay [1] (setting [6]); 44.6 ± 1.9 µM in assay [2] (Homo sapiens, MDA-MB-231, 48 h). Moreover, the EC50 in assay [3] (Homo sapiens, HUVEC) is 29.1 ± 3.2 µM; in assay [4] (setting [7]), 197 ± 11.3 µM.

As for `CC(C)[C@@H](C)/C=C/[C@@H](C)[C@H]1CC[C@H]2C3=CC=C4C[C@@H](O)CC[C@]4(C)[C@H]3CC[C@]12C` [Compound 12, (3β, 22E)-ergosta-5,7, 22-trien-3-ol], the IC50 in assay [1] (setting [5]) amounted to 75.6 ± 4.7 µM; in assay [2] (Homo sapiens, MDA-MB-231, 48 h) it was 69.7 ± 5.8 µM. Besides, the concentration giving a half-maximal response (EC50) worked out at 72.4 ± 5.6 µM in assay [3] (Homo sapiens, HUVEC) and 261 ± 12 µM in assay [4] (setting [7]).

`CC(C)[C@@H](C)/C=C/[C@@H](C)[C@H]1CC[C@@H]2[C@]1(C)CC=C1[C@]23C=C[C@]2(C[C@@H](O)CC[C@]12C)OO3` [Compound 13, (3β, 5α, 8α, 22E)-5,8-epidioxy-ergosta-6, 9 (11), 22-trien-3-ol]: the IC50 was 44.5 ± 1.3 µM in assay [1] (setting [5]); 44.5 µM in assay [1] (setting [6]); 32.1 ± 3 µM in assay [2] (Homo sapiens, MDA-MB-231, 48 h). Besides, the EC50 in assay [3] (Homo sapiens, HUVEC) is 51.6 ± 2.8 µM; in assay [4] (setting [7]) it was 293 ± 17.2 µM.

For `CC(C)[C@@H](C)/C=C/[C@@H](C)[C@H]1CC[C@@]2(O)C3=C(CC[C@]12C)[C@@]1(C)CC[C@H](O)C[C@@]12O[C@H]2C3=O` [Compound 14, (3β, 5α, 6α, 14α, 22E)-3, 14-dihydroxy-5,6-epoxy-ergosta-8, 22-dien-7-one], the IC50 worked out at 201 ± 6.4 µM in assay [1] (setting [5]) and 189 ± 8.1 µM in assay [2] (Homo sapiens, MDA-MB-231, 48 h). Besides, the EC50 in assay [3] (Homo sapiens, HUVEC) is 321 ± 18.9 µM; in assay [4] (setting [7]), over 500 µM.

`O=c1c(O)c(-c2ccc(O)cc2)oc2cc(O)cc(O)c12` [kaempferol, reference compound]: the IC50 in assay [1] (setting [5]) is 45.4 ± 3.4 µM; in assay [1] (setting [6]), 45.4 µM; in assay [2] (Homo sapiens, MDA-MB-231, 48 h) it was 56.6 ± 3.1 µM. Moreover, the concentration giving a half-maximal response (EC50) in assay [3] (Homo sapiens, HUVEC) is 35.5 ± 4.1 µM; in assay [4] (setting [7]) it was 356 ± 15.9 µM.

For “(3β, 5α, 6β, 9α, 14α, 22E)-ergosta-7, 22-diene-3, 5, 6, 9, 14-pentol [Compound 8]”, the “Experimental pIC50” value in assay [1] (setting [9]) is listed as 3.543. The “decline of activity in comparison with compound 2” value in assay [1] (HepG2 IC50) is given as “approximately 4.6 folds”. In addition, the IC50 was 286 ± 18.9 µM in assay [1] (setting [8]) and 216 ± 14.3 µM in assay [2] (48 h). Besides, the EC50 was 357 ± 19.5 µM in assay [3] (read-out: EC50 HUVEC) and over 500 µM in assay [4] (mean ± SD).

For the compound “(3β, 5α, 6β, 9α, 22E)-ergosta-7, 22-diene-3, 5, 6, 9-tetrol [Compound 3]”, the “Experimental pIC50” value in assay [1] (setting [9]) was 3.887. Further, the IC50 in assay [1] (setting [8]) is 130 ± 3.4 µM; in assay [2] (48 h), 148 ± 5.8 µM. Further, the concentration giving a half-maximal response (EC50) was 84 ± 6.7 µM in assay [3] (read-out: EC50 HUVEC) and 365 ± 15.7 µM in assay [4] (mean ± SD). In assay [3], the “selective inhibition, tumor cells versus HUVECs” value is “selective inhibition against HUVECs”.

“(3β, 5α, 6β, 14α, 22E)-ergosta-7, 9 (11), 22-triene-3, 5, 6, 14-tetrol [Compound 7]”: the “Experimental pIC50” value in assay [1] (setting [9]) came to 3.806. Also, the IC50 in assay [1] (setting [8]) came to 156 ± 8.9 µM; in assay [2] (48 h) it was 169 ± 11.1 µM. Moreover, the results for the EC50 in assay [3] (read-out: EC50 HUVEC) and in assay [4] (mean ± SD) were 188 ± 15.3 µM and over 500 µM, respectively.
